Data from patent US4594329A, “CRF analogs” (The Salk Institute for Biological Studies, priority 1984, dated 1986).

Columns and labels:
[1] = lowering of blood pressure, in vivo testing; details: synthetic peptide; extended time period
[2] = tested on: secretion of ACTH and β-endorphin; test: stimulation of ACTH and β-endorphin, background statements (in vitro and in vivo); details: synthetic peptide
[3] = in mammals; cited from earlier work
[4] = tested on: cultured rat pituitary cells; test: secretion of ACTH and β-endorphin by cultured rat pituitary cells; assay type: cell-based; details: cultured rat pituitary cells; read-out: concentration giving half-maximal responses, secretion of ACTH and β-endorphin
[5] = tested on: secretion of ACTH and β-endorphin; details: in mammals; cited from earlier work
gastric acid production = details: cited from earlier work

EC50 [4]: ~0.25 nM
SMILES: CC[C@H](C)[C@H](NC(=O)[C@H](CC(=O)O)NC(=O)[C@H](CC(C)C)NC(=O)[C@H](CC(C)C)NC(=O)[C@H](CCCCN)NC(=O)[C@H](CCCNC(=N)N)NC(=O)[C@H](CC(N)=O)NC(=O)[C@H](CO)NC(=O)[C@H](Cc1c[nH]cn1)NC(=O)[C@H](C)NC(=O)[C@H](CCC(N)=O)NC(=O)[C@H](CCC(N)=O)NC(=O)[C@H](C)NC(=O)[C@H](CC(C)C)NC(=O)[C@H](CCC(N)=O)NC(=O)[C@H](CC(=O)O)NC(=O)[C@H](C)NC(=O)[C@H](CCCCN)NC(=O)[C@@H](NC(=O)[C@H](CCSC)NC(=O)[C@H](CCC(=O)O)NC(=O)[C@H](CC(C)C)NC(=O)[C@@H](NC(=O)[C@H](CCC(=O)O)NC(=O)[C@H](CCCNC(=N)N)NC(=O)[C@H](CC(C)C)NC(=O)[C@H](CC(C)C)NC(=O)[C@H](Cc1c[nH]cn1)NC(=O)[C@H](Cc1ccccc1)NC(=O)[C@@H](NC(=O)[C@H](CC(C)C)NC(=O)[C@H](CC(=O)O)NC(=O)[C@H](CC(C)C)NC(=O)[C@H](CO)NC(=O)[C@@H](NC(=O)[C@@H]1CCCN1C(=O)[C@@H]1CCCN1C(=O)[C@H](CCC(=O)O)NC(=O)[C@H](CCC(N)=O)NC(=O)[C@@H](N)CO)[C@@H](C)CC)[C@@H](C)O)C(C)C)[C@@H](C)O)C(=O)N[C@@H](C)C(N)=O [oCRF]
lowering of blood pressure [1]: substantially lower blood pressure for an extended time period
stimulation of ACTH and β-endorphin activities [2]: stimulate ACTH and β-endorphin activities in vitro and in vivo
biological activity in lowering blood pressure (reported) [3]: biological activity in lowering blood pressure in mammals
biological activity in stimulating the secretion of ACTH and β-endorphin (reported) [5]: stimulating the secretion of ACTH and β-endorphin
gastric acid production (gastric acid production): inhibits gastric acid production
